“Also recorded” adds a separate entry of the source.

Data set [1] has as its system THP-1 cells conditioned with Chlamydia pneumoniae. In words: Oxidant activity (ethylene production from KMB, gas liquid chromatography) of THP-1 cells conditioned with Chlamydia pneumoniae, then stimulated by PMA. In kind it is cell-based, human. Particulars: for Ethylene: % of THP-1 + Chlamydia. Here is the method:
This model has been described in details in Mouithys Mickalad et al. (Biochem Biophys Res Comm 2001, 287: 781-788). Treatment of the Cells with Chlamydia pneumoniae:
The monocytes (in multiwell plates, 2×10^6 cells/well) are conditioned by a pre-incubation of 19 hours with elementary bodies of Chlamydia pneumoniae (at a dose equivalent to a mean endotoxin concentration of 3.3 pg). The elementary bodies are obtained by Chlamydia culture in MacCoy cells (American Type Culture Collection, Rockville, USA).
After incubation with C. pneumoniae, the cells are washed and detached from the wells; they are put in sterile vials and an oxidable substrate, α-keto-methyl butyric acid (KMB) at 10^−3 M, is added. The vial is sealed and the following reagents are added by needle puncture. through the septum: 200 U horseradish peroxidase (HRP) and 10^−7 M phorbol myristate acetate (PMA).
PMA is a monocyte activator, enhancing the superoxide anion production by these cells. Superoxide anion dismutates into hydrogen peroxide (H2O2), which is used by HRP to form more oxidant species, able to oxidize KMB, releasing ethylene. After 3 hours of incubation at 37° C, ethylene, which has accumulated in the gaseous phase of the sealed vial is measured by gas liquid chromatography, on a Porapak T column (TM) equipped with flame ionisation detector. These assays can be made with the prior addition of a reagent able to inhibit or to stimulate the monocytes, the reagent being added, either at pre-incubation (at the same time as the Chlamydia EB), or at the moment of PMA activation.

The test system of the next data set is superoxide anion. In words: EPR spin-trapping of superoxide anion produced by Chlamydia-conditioned, PMA stimulated THP-1 cells. In kind it is cell-based, human. The settings on record: 10 μM DPI; FIG. 5 lines I-5 and II-4; PMA 5×10^−7 M. An excerpt: Monocytes are conditioned by Chlamydia. The formation of this species was monitored by electron paramagnetic resonance, using spin-trapping agents.

Data set [2] concerns nuclear transcription factor kappaB (NF-κB). In words: Activation of NF-κB (binding to DNA) by electrophoretic mobility shift assay in THP-1 cells pre-incubated with Chlamydia. It is filed as cell-based, human. Particulars: THP-1 + Chlamydia, % of THP-1 without preincubation with C pneumoniae (FIG. 7). As for the experimental part:
FIG. 7 represents the effects of pre-incubation with Chlamydia on the activity of the nuclear transcription factor kappaB (NF-kB) (column 2). NF-kB is expressed in % of column 1 (THP-1 cells without preincubation with C pneumoniae)
The activation of NF-κB was measured by the technique of <<electrophoretic mobility shift assay>> (EMSA) (Schoonbroodt et al., 2000, J Immunol. 164: 4292-4300; Nys et al., 2003, Nitric Oxide 9: 33-43) (FIG. 7). The activation of NF-κB is expressed in % of control cells (cells which have not been pre-incubated with Chlamydia) (column 1). The incubation of monocytes with C. pneumoniae activates the NF-κB binding to DNA (FIG. 7, column 2).

For data set [3] the following is noted: Dunnick et al.; cited from earlier work.
Another data set concerns THP-1 cells. Nature of the data set: Microscopy of monocyte transformation into macrophages under Chlamydia pneumoniae. In kind it is cell-based, human. As for the experimental part: Incubation of THP-1 cells with C. pneumoniae induces the differentiation of monocytes (round floating cells, […] diameter; FIG. 1, 1) into macrophages, amiboid cells, which are larger than monocytes (30-50 μm diameter) and adhere to the support (FIGS. 1,2). Monocytes are stained with Giemsa and May-Grunwald stains (Merck, Germany) (Chemical methods of medical investigation, 1964, 10th edition by E. Merck AG. Darmstadt, Germany) and macrophages are observed by phase contrast microscopy.

For the next data set, the system named is THP-1 cell line. In words: Model of foam cell formation from THP-1 monocytes (Chlamydia pneumoniae, then LDL or liposomes, Oil Red O). It is filed as cell-based, human. The settings on record: 10^−5 M; LDL. Here is the method: A model of foam cell formation from monocytes (THP-1 cell line) was developed. The cells are incubated for 19 hours with Chlamydia pneumoniae. This incubation is followed by the addition of human LDL or liposomes, and another incubation period of 48 hours. At the end of this second period of incubation, the cells are fixed and stained with oil Red O (Sigma, Belgium) (Smirnova et al., 2004, Am J Physiol Heart Circ Physiol. March 11 (Epub ahead of print) to highlight the foam cells. When drugs are used in this model, they are added at the same time as the LDL or liposomes. LDL are prepared from human blood drawn on EDTA. They are isolated by sequential flotation centrifugation with increased concentrations of KBr. After their isolation, LDL are dialysed, sterilised by filtration and their purity is confirmed by electrophoresis. Liposomes are lipid vesicles prepared by extrusion with cholesterol esters and phospholipids, mimicking lipoproteins.

Setting [4] is: not pre-incubated, added directly before the stimulation by PMA.
The mark [5] stands for this setting: drug added at cell conditioning with Chlamydia (pre-incubation 19 hours), then PMA 10^−7 M.

With `c1ccc([I+]c2ccccc2)cc1` [DPI, diphenyl iodonium], in data set [1] (DPI 5 μM, FIG. 3 column 7, PMA 10^−7 M), the “effect on ethylene production” value is on record as “inhibits almost totally”. For the same compound, in the data set on superoxide anion, the “effect on EPR signal of superoxide anion” value is on record as “suppresses”.
For `C[C@H]1C[C@@H]2[C@H]([C@@H](O)C[C@@]3(C)[C@H]2CC[C@]3(O)C(=O)CO)[C@@]2(C)C=CC(=O)C=C12` [MPL, methylprednisolone], the “NF-κB relative value (%)” value was 417% in data set [2] (10^−5 M) and 450% in data set [2] (10^−6 M).
On to `O=c1c(O)c(-c2ccc(O)c(O)c2)oc2cc(O)cc(O)c12` [Quercetin, quercetin], for which the “effect on oxidant activity / oxidation rate” value in data set [1] (10^−4 M, pre-incubated with Chlamydia) is on record as “active; also recorded: inhibitor”. Further, the Ethylene was found to be 2.0% in data set [1] (FIG. 12, 10^−4 M incubated together with Chlamydia); 3.7% in data set [1] (FIG. 12, 10^−4 M not incubated (added just before PMA)); 100.0% in data set [1] (FIG. 12, 10^−5 M incubated together with Chlamydia); 1.2% in data set [1] (FIG. 12, 10^−5 M not incubated (added just before PMA)); 131.0% in data set [1] (FIG. 12, 10^−6 M incubated together with Chlamydia); 6.6% in data set [1] (FIG. 12, 10^−6 M not incubated (added just before PMA)). In addition, the “effect on ethylene production” value in data set [1] (setting [4]) is on record as “quite completely inhibit the ethylene production”. Further, the “concentrations at which toxicity does not exist” value in data set [3] was ≤ 10^−4 M.
On to `Oc1ccc(/C=C/c2cc(O)cc(O)c2)cc1` [Resveratrol, trans-reveratrol], for which the Ethylene in data set [1] (FIG. 19, drug alone 10^−4 M, pre-incubation with Chlamydia) is 18.3%; in data set [1] (FIG. 19, drug alone 10^−5 M, pre-incubation with Chlamydia), 35.8%. Also, in data set [1] (setting [5]), the “effect on oxidant activity / oxidation rate” value is “reduces the oxidizing activity of THP-1 cells”. The “effect on ethylene production” value in data set [1] (setting [4]) is listed as “inhibiting capacity is still more marked”. Moreover, the “inhibition of the monocyte transformation into macrophages” value in the data set with THP-1 cells (at 10^−4 M) is “nearly complete”; with THP-1 cells (at 10^−5 M), “partial”. Also, the “effect on transformation into foam cells” value with THP-1 cell line was “completely inhibits”.
For the compound `CC(=O)c1ccc2c(c1)N(CCCN(C)C)c1ccccc1S2` [acepromazine], the “effect on oxidant activity / oxidation rate” value in data set [1] (setting [5]) is recorded as “little or no effect”.
On to `COc1cc(C(C)=O)ccc1O` [apocyanine, apocynine], for which, in data set [1] (setting [5]), the “effect on oxidant activity / oxidation rate” value is reported as “little or no effect”.
With `CC/C(=C(/CC)c1ccc(O)cc1)c1ccc(O)cc1` [bertrol, trans-α-α-diethyl-p,p′-stilbenediol], the Ethylene in data set [1] (FIG. 21, drug alone 10^−4 M, pre-incubation with Chlamydia) amounted to 1.6%; in data set [1] (FIG. 21, drug alone 10^−5 M, pre-incubation with Chlamydia), 32.0%.
Turning to `C[C@]12CC[C@@H]3c4ccc(O)cc4CC[C@H]3[C@@H]1CC[C@@H]2O` [estradiol], the Ethylene in data set [1] (FIG. 10, 10^−4 M not pre-incubated (added just before PMA)) was 2.6%; in data set [1] (FIG. 10, 10^−4 M pre-incubated with Chlamydia), 140.0%; in data set [1] (FIG. 10, 10^−5 M not pre-incubated (added just before PMA)) it was 2.9%; in data set [1] (FIG. 10, 10^−5 M pre-incubated with Chlamydia), 133.0%; in data set [1] (FIG. 10, 10^−6 M not pre-incubated (added just before PMA)) it was 7.8%; in data set [1] (FIG. 10, 10^−6 M pre-incubated with Chlamydia) it was 85.0%.
Take `Oc1cc(O)cc(C=Cc2ccc(O)c(O)c2)c1` [piceatanol, 3,4,3′,5′tetrahydrostilbene]: the Ethylene is reported as 0.4% in data set [1] (FIG. 20, drug alone 10^−4 M, pre-incubation with Chlamydia) and 57.0% in data set [1] (FIG. 20, drug alone 10^−5 M, pre-incubation with Chlamydia).
Regarding `Oc1ccc(/C=C/c2ccccc2)cc1` [trans-4-stilbene, trans-4-hydrostilbene], the Ethylene in data set [1] (FIG. 22, drug alone 10^−4 M, pre-incubation with Chlamydia) is listed as 1.8%; in data set [1] (FIG. 22, drug alone 10^−5 M, pre-incubation with Chlamydia), 14.0%.
With tocopherol, the Ethylene in data set [1] (FIG. 11 column 4, 10^−4 M pre-incubated) is on record as 147.0%; in data set [1] (FIG. 11 column 5, 10^−6 M pre-incubated (so in the source)), 133.0%; in data set [1] (FIG. 11 column 6, 10^−6 M pre-incubated), 87.0%; in data set [1] (FIG. 11 column 7, 10^−4 M not pre-incubated (added just before PMA)), 2.4%; in data set [1] (FIG. 11 column 8, 10^−5 M not pre-incubated (added just before PMA)) it was 2.5%; in data set [1] (FIG. 11 column 9, 10^−6 M not pre-incubated (added just before PMA)) it was 77.0%. In addition, the “effect on oxidant activity / oxidation rate” value in data set [1] (setting [5]) is listed as “favouring the oxidation rate”; in data set [1] (drug added at cell conditioning with Chlamydia (pre-incubation 19 hours), then PMA 10^−7 M, listed as vitamin E (tocopherol)), “little or no effect”. For the same compound, the “effect on ethylene production” value in data set [1] (setting [4]) is reported as “quite completely inhibit the ethylene production”.

Values taken from patent publication US20060252707A1, “Pharmaceutical composition for the treatment and/or the prevention of atherosclerosis from infectious origin” (UNIVERSITE DE LIEGE, priority 2003, published 2006).
